Data reported in ChEMBL document CHEMBL5724914, “Linking interpersonal differences in gut microbiota composition and drug biotransformation activity” (2024).

Tests used:
[1] = (§1) The drug is tested on WLS-082 corresponding to human gut metagenome with ENA study accession number: PRJEB37062 and ENA sample accession number: ERS12561751 for biotransformation under anaerobic condition. The drug concentrations were measured over 9 timepoints collected between 0 and 24 hours of incubation by liquid-chromatography-coupled mass spectrometry (LC–MS); settings: 2 µM
[2] = as §1, with “Z-028” for “WLS-082”, “mouse” for “human”, “ERS12561827” for “ERS12561751”; settings: 2 µM
[3] = as §1, with “Z-005” for “WLS-082”, “to” for “to human gut”, “ERS12561805” for “ERS12561751”; settings: 2 µM
[4] = human gut metagenome, 24 h, 2 µM
[5] = as §1, with “WLS-170” for “WLS-082”, “ERS12561762” for “ERS12561751”; settings: 2 µM
[6] = human gut metagenome, 24 h, 2 µM; remark: listed apart in the source
[7] = as §1, with “Z-018” for “WLS-082”, “pig” for “human”, “ERS12561817” for “ERS12561751”; settings: 2 µM
[8] = as §1, with “WLS-098” for “WLS-082”, “ERS12561754” for “ERS12561751”; settings: 2 µM
[9] = as §1, with “Z-013” for “WLS-082”, “rabbit” for “human”, “ERS12561813” for “ERS12561751”; settings: 2 µM
[10] = as §1, with “Z-006” for “WLS-082”, “mouse” for “human”, “ERS12561806” for “ERS12561751”; settings: 2 µM
[11] = human gut metagenome, 24 h, 2 µM; remark: listed apart in the source
[12] = human gut metagenome, 24 h, 2 µM; remark: listed apart in the source
[13] = as §1, with “Z-023” for “WLS-082”, “to” for “to human gut”, “ERS12561822” for “ERS12561751”; settings: 2 µM
[14] = as §1, with “WLS-370” for “WLS-082”, “ERS12561793” for “ERS12561751”; settings: 2 µM
[15] = as §1, with “Z-021” for “WLS-082”, “to” for “to human gut”, “ERS12561820” for “ERS12561751”; settings: 2 µM
[16] = human gut metagenome, 24 h, 2 µM; remark: listed apart in the source
[17] = human gut metagenome, 24 h, 2 µM; remark: listed apart in the source
[18] = as §1, with “Z-010” for “WLS-082”, “to” for “to human gut”, “ERS12561810” for “ERS12561751”; settings: 2 µM
[19] = as §1, with “WLS-086” for “WLS-082”, “ERS12561752” for “ERS12561751”; settings: 2 µM
[20] = as §1, with “WLS-010” for “WLS-082”, “ERS12561743” for “ERS12561751”; settings: 2 µM
Note: call rule not given here.

Row | SMILES | Bacterial Biotransformation [1] | Bacterial Biotransformation [2] | Bacterial Biotransformation [3] | Bacterial Biotransformation [4] | Bacterial Biotransformation [5] | Bacterial Biotransformation [6] | Bacterial Biotransformation [7] | Bacterial Biotransformation [8] | Bacterial Biotransformation [9] | Bacterial Biotransformation [10] | Bacterial Biotransformation [11] | Bacterial Biotransformation [12] | Bacterial Biotransformation [13] | Bacterial Biotransformation [14] | Bacterial Biotransformation [15] | Bacterial Biotransformation [16] | Bacterial Biotransformation [17] | Bacterial Biotransformation [18] | Bacterial Biotransformation [19] | Bacterial Biotransformation [20]
1 | CC(C)(C)NC[C@H](O)COc1nsnc1N1CCOCC1.O=C(O)/C=C\C(=O)O [TIMOLOL MALEATE] | Compound NOT metabolized | Compound NOT metabolized | Compound NOT metabolized | Compound NOT metabolized | Compound NOT metabolized | Compound NOT metabolized | Compound NOT metabolized | Compound NOT metabolized | Compound NOT metabolized | Compound NOT metabolized | Compound NOT metabolized | Compound NOT metabolized | Compound NOT metabolized | Compound NOT metabolized | Compound NOT metabolized | Compound NOT metabolized | Compound NOT metabolized | Compound NOT metabolized | Compound NOT metabolized | Compound NOT metabolized
2 | CC[C@@]1(O)C(=O)OCc2c1cc1n(c2=O)Cc2cc3c(CN(C)C)c(O)ccc3nc2-1 [TOPOTECAN] | Compound NOT metabolized | Compound NOT metabolized | Compound NOT metabolized | Compound NOT metabolized | Compound NOT metabolized | Compound NOT metabolized | Compound NOT metabolized | Compound NOT metabolized | Compound NOT metabolized | Compound NOT metabolized | Compound NOT metabolized | Compound NOT metabolized | Compound NOT metabolized | Compound NOT metabolized | Compound NOT metabolized | Compound NOT metabolized | Compound NOT metabolized | Compound NOT metabolized | Compound NOT metabolized | Compound NOT metabolized
3 | COc1cc(C(=O)NCc2ccc(OCCN(C)C)cc2)cc(OC)c1OC [TRIMETHOBENZAMIDE] | Compound NOT metabolized | Compound NOT metabolized | Compound NOT metabolized | Compound NOT metabolized | Compound NOT metabolized | Compound NOT metabolized | Compound NOT metabolized | Compound NOT metabolized | Compound NOT metabolized | Compound NOT metabolized | Compound NOT metabolized | Compound NOT metabolized | Compound NOT metabolized | Compound NOT metabolized | Compound NOT metabolized | Compound NOT metabolized | Compound NOT metabolized | Compound NOT metabolized | Compound NOT metabolized | Compound NOT metabolized
4 | COc1ccc(C(CN(C)C)C2(O)CCCCC2)cc1 (stereo not given) [VENLAFAXINE] | Compound NOT metabolized | Compound NOT metabolized | Compound NOT metabolized | Compound metabolized | Compound NOT metabolized | Compound NOT metabolized | Compound NOT metabolized | Compound NOT metabolized | Compound NOT metabolized | Compound NOT metabolized | Compound NOT metabolized | Compound NOT metabolized | Compound NOT metabolized | Compound NOT metabolized | Compound NOT metabolized | Compound NOT metabolized | Compound NOT metabolized | Compound NOT metabolized | Compound NOT metabolized | Compound NOT metabolized
5 | CCOC(=O)C1=C[C@]2(CC)CCCN3CCc4c(n1c1ccccc41)[C@@H]32 [VINPOCETINE] | Compound metabolized | Compound NOT metabolized | Compound NOT metabolized | Compound metabolized | Compound metabolized | Compound metabolized | Compound metabolized | Compound metabolized | Compound NOT metabolized | Compound NOT metabolized | Compound metabolized | Compound metabolized | Compound metabolized | Compound metabolized | Compound NOT metabolized | Compound NOT metabolized | Compound NOT metabolized | Compound metabolized | Compound metabolized | Compound NOT metabolized
6 | C[C@@H](c1ncncc1F)[C@](O)(Cn1cncn1)c1ccc(F)cc1F [VORICONAZOLE] | Compound metabolized | Compound NOT metabolized | Compound metabolized | Compound metabolized | Compound metabolized | Compound metabolized | Compound metabolized | Compound metabolized | Compound NOT metabolized | Compound NOT metabolized | Compound metabolized | Compound metabolized | Compound metabolized | Compound metabolized | Compound NOT metabolized | Compound metabolized | Compound metabolized | Compound metabolized | Compound metabolized | Compound metabolized
7 | CCN(C(C)=O)c1cccc(-c2ccnc3c(C#N)cnn23)c1 [ZALEPLON] | Compound metabolized | Compound NOT metabolized | Compound NOT metabolized | Compound metabolized | Compound metabolized | Compound metabolized | Compound metabolized | Compound metabolized | Compound NOT metabolized | Compound NOT metabolized | Compound metabolized | Compound metabolized | Compound metabolized | Compound metabolized | Compound NOT metabolized | Compound metabolized | Compound NOT metabolized | Compound metabolized | Compound metabolized | Compound metabolized
